From patent US7741360B2, “Bi-aryl or aryl-heteroaryl substituted indoles” (AstraZeneca AB, priority 2006, dated 2010)

Molecular target: T1, rhCRTh2 (Homo sapiens, UniProt Q9Y5Y4)
T1 construct: expressed in transfected cells; host or cells: HEK cells (membrane preparation)
T1 sequence (Q9Y5Y4 1-395): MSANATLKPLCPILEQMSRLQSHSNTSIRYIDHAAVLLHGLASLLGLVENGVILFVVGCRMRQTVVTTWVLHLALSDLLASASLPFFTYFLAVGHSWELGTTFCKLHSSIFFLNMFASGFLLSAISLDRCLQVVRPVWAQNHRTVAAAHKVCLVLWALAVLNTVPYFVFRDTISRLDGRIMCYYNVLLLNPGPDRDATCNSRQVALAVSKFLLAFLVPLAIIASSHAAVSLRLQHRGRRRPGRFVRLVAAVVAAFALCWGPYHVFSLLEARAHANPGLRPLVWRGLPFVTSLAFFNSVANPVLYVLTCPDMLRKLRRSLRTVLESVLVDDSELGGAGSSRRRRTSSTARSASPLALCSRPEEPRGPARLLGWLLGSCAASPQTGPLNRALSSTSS
Assay: Ligand binding assay, [3H]PGD2 SPA on HEK cell membranes
Conditions: [3H]PGD2 displacement, membranes of HEK cells expressing rhCRTh2/Gα16, SPA beads, RT 2 hours
Method: [^3H]PGD2 was purchased from Perkin Elmer Life Sciences with a specific activity of 100-210 Ci/mmol. All other chemicals were of analytical grade.
HEK cells expressing rhCRTh2/Gα16 were routinely maintained in DMEM containing 10% Foetal Bovine Serum (HyClone), 1 mg/ml geneticin, 2 mM L-glutamine and 1% non-essential amino acids. For the preparation of membranes, the adherent transfected HEKcells were grown to confluence in two layer tissue culture factories (Fisher, catalogue number TKT-170-070E). Maximal levels of receptor expression were induced by addition of […] sodium butyrate for the last 18 hours of culture. […] The final pellet was re-suspended in 4 ml of membrane homogenisation buffer per cell factory used and the protein content determined. […]
All assays were performed in Corning clear bottomed, white 96-well NBS plates (Fisher). […] (The optimum coating concentrations were determined for each batch of membranes) The beads were pelleted by centrifugation (800×g for 7 minutes at 4° C.), washed once with assay buffer (50 mM HEPES pH 7.4 containing 5 mM magnesium chloride) and finally re-suspended in assay buffer at a bead concentration of 10 mg/ml. […]

- IC50: 20 nM
Compound: Cc1c(Sc2ccc(-c3ccccc3)cc2)c2cc(F)ccc2n1CC(=O)O [Example 1, [3-(Biphenyl-4-ylsulfanyl)-5-fluoro-2-methyl-indol-1-yl]-acetic acid]
